Consider 3 compounds from article PMC5407577, “Functional and genetic evidence that nucleoside transport is highly conserved in Leishmania species: Implications for pyrimidine-based chemotherapy” (International Journal for Parasitology: Drugs and Drug …, 2017).

The target in one assay is LmexUU1. The assay is classed as cell-based, Leishmania mexicana. Here is the method:
(§1) Using the standard uptake technique as described for T. brucei and Leishmania species ([Wallace et al., 2002], [Al-Salabi and De Koning, 2005], [Gudin et al., 2006]), the dose- or time-dependent uptake of radiolabeled permeants was investigated.
(§2) Briefly, cells in the mid-to-late logarithmic stage of growth were harvested by centrifugation for 10 min at 1500×g. The cells were washed twice with transport assay buffer (AB: 33 mM HEPES, 98 mM NaCl, 4.6 mM KCl, 0.55 mM CaCl2, 0.07 mM MgSO4, 5.8 mM NaH2PO4, 0.3 mM MgCl2, 23 mM NaHCO3, 14 mM glucose, pH 7.3), resuspended at a density of 10^8 cells ml^−1 in AB, and left for 20–30 min at room temperature to recover from centrifugation stress. One hundred microliters of cell suspension was incubated at ambient temperature for a predetermined time with 100 μl radiolabeled test compound, in the presence or absence of unlabeled substrate or other competitive inhibitors. The incubation was terminated by the addition of ice-cold stop solution (AB containing saturating levels, usually 10 mM, of unlabeled permeant) and centrifugation through oil for 1 min at 13,000 × g. […] Radioactivity was determined by liquid scintillation counting in a Beckman LS6000 TA scintillation counter. Saturation data, inhibition data, and time courses were plotted to equations for linear or non-linear regression (hyperbolic or sigmoid curves), as appropriate. All experiments were performed in triplicate and on at least three independent occasions.

The target of assay [1] is LmajNT1. Briefly: [3H]-thymidine uptake by L. major promastigotes. The assay is classed as cell-based, Leishmania major. On the procedure:
as §1, §2
Subsequent experiments were performed with a 5 min incubation time.

The target in assay [2] is LmajNT1. Briefly: [3H]-uridine uptake by L. major promastigotes, low-affinity component. The settings on record: inhibition of 0.25 μM [3H]-uridine uptake. It is filed as cell-based, Leishmania major. On the procedure:
as §1, §2

The target in a further assay is LmajUUT1. In words: [3H]-uridine uptake by L. major promastigotes, high-affinity uracil-sensitive component. The assay is classed as cell-based, Leishmania major. The settings on record: inhibition of 0.25 μM [3H]-uridine uptake. On the procedure: as §1, §2
The subject of another assay is Lmex5FURes. Briefly: microbe, parasite or virus in culture. It is filed as cell-based, Leishmania mexicana. The settings on record: for EC50: Leishmania mexicana; for RF (Resistance Factor = IC50 (resistant clone)/IC50 (WT)): Lmex5FURes vs L. mexicana WT. Here is the method: (§3) Sensitivity assays of Leishmania strains to various drugs using the viability dye resazurin (Alamar Blue) (Sigma-Aldrich) were performed using a protocol adapted from [Räz et al. (1997)], as described ([Al-Salabi et al., 2003], [Gould et al., 2008]). Pentamidine and diminazene were used as non-nucleoside controls and were obtained from Sigma-Aldrich, as were many purines, pyrimidines, and analogs, with the exceptions of 2-thiouridine and 4-thiouridine (TriLink BioTechnologies, San Diego, CA); 5′-deoxyuridine, and 2′-3′-dideoxyuridine (Carbosynth, Compton, UK); 5-fluoro-2′-deoxyuridine (Fluka); and 2-thiouracil (ICN Biomedicals, Cambridge, UK). A preliminary promastigote culture was diluted to a density of 2 × 10^6 cells/ml, of which 100 μl was added to wells of 96-well plates pre-loaded with 100 μl of doubling dilutions of test compounds, resulting in a final density of 1 × 10^6 cells/ml; the dilutions were over 2 rows of the plate (23 concentrations), with the last well containing only medium and serving as the no-drug control. The plates were incubated at 25 °C for 72 h before adding the Alamar Blue dye (20 μl of 12.5 mg resazurin sodium salt (Sigma) in 100 ml phosphate buffered saline (PBS; pH 7.4)). Since Leishmania parasites metabolize the Alamar Blue dye slower than trypanosomes ([Gould et al., 2008]), the cells were incubated with the dye for a further period of 48 h before measuring the fluorescence, using a FLUOstar Optima fluorimeter (BMG Labtech) at wavelengths of 544 nm for excitation and 620 nm for emission. […] Each experiment was performed independently at least 4 times; statistical significance was determined using Student's unpaired t-test.

The subject of another assay is Lmex5F2′dURes. Briefly: microbe, parasite or virus in culture. It is filed as cell-based, Leishmania mexicana. Conditions: for EC50: Leishmania mexicana; for RF (Resistance Factor = IC50 (resistant clone)/IC50 (WT)): Lmex5F2′dURes vs L. mexicana WT. On the procedure: as §3
A further assay deals with LmexNT1. It is filed as cell-based, Leishmania mexicana. Conditions: inhibition of 0.25 μM [3H]-uridine uptake in the presence of 1 mM uracil. On the procedure:
as §1, §2

Assay [3] has as its system L. mexicana promastigotes WT. Briefly: Alamar blue drug sensitivity assay, L. mexicana WT. It is filed as cell-based, Leishmania mexicana. The settings on record: for EC50: Leishmania mexicana, 72 h, WT promastigotes, 72 h + 48 h with dye, n ≥ 4, read-out: EC50; for activity against L. mexicana promastigotes: at concentrations up to 5 mM. On the procedure:
as §3
Background: Alamar Blue is a resazurin reagent that responds to reducing activity.

In the next assay the test system is Lmaj5FURes. Briefly: microbe, parasite or virus in culture. Conditions: for EC50: Leishmania major; for RF (Resistance Factor = IC50 (resistant clone)/IC50 (WT)): Lmaj5FURes vs L. major WT. It is filed as cell-based, Leishmania major. Here is the method:
as §3

In a further assay the test system is Lmaj5F2′dURes. In words: microbe, parasite or virus in culture. It is filed as cell-based, Leishmania major. Conditions: for EC50: Leishmania major; for RF (Resistance Factor = IC50 (resistant clone)/IC50 (WT)): Lmaj5F2′dURes vs L. major WT. Here is the method: as §3
For another assay, the system named is L. major promastigotes. Briefly: metabolomic analysis of treated L. major promastigotes. It is filed as cell-based, Leishmania major. Conditions: 100 μM, 8 h; for dCMP peak intensity: n = 3, SEM, untreated: not detected (<500); for dUrd peak intensity: untreated: 712 ± 105; for dCTP peak intensity: untreated: 995 ± 109; for dAdo peak intensity: untreated: 2992 ± 173; for dAMP peak intensity: untreated: 6192 ± 910; for dADP peak intensity / dCDP peak intensity: untreated: not detected. On the procedure:
(§4) Metabolomics analysis of the Leishmania promastigotes was undertaken in triplicate, exactly as described ([Ali et al., 2013a]). Briefly, cells were grown to log phase stage, resuspended at 2 × 10^6 cells/ml in 50 ml HOMEM/FBS and incubated 8 h with 100 μM of test compound (standard conditions) before transfer to a 50-ml centrifuge tube for instantaneous cooling (dry ice/ethanol bath, 4 °C) and centrifugation (2500 rpm, 10 min, 4 °C). The pellet was lysed with 200 μl of chloroform/methanol/water (1:3:1 v/v/v) containing mass spectrometry standards, and vigorous mixing (1 h, 4 °C); cell debris was removed by centrifugation and the metabolite extracts were stored in HPLC vials at −80 °C. Control samples were prepared in parallel and included untreated cells, unused growth medium, test compound solution and extraction solvent blanks. The analysis used a hydrophilic interaction liquid chromatography (HILIC-LC) fitted with a zwitterionic ZIC-pHILIC column (Merck Sequant), coupled to high resolution mass spectrometry (MS) using a Thermo Q-Exactive, and metabolomic data outputs were analyzed using the IDEOM application (http://mzmatch.sourceforge.net/ideom.php) with default parameters ([Creek et al., 2012]) exactly as described ([Ali et al., 2013a]). The lower limit of detection was set to 500 intensity units for all reported metabolites, in order to prevent spurious identification of low level signals.
(§5) The mechanism of action of the fluorinated pyrimidines was investigated using a metabolomics approach, where promastigotes of L. mexicana and L. major were incubated for 8 h with 100 μM of either 5-FU, 5F-2′dUrd or 5F-Urd prior to metabolite extraction and mass spectrometric analysis as described ([Ali et al., 2013a], [Alkhaldi et al., 2015]). These conditions were chosen to allow for significant metabolite accumulation while not affecting cell viability or growth rate, which could broadly affect metabolite levels.

In assay [4] the test system is L. mexicana promastigotes. Briefly: metabolomic analysis of treated L. mexicana promastigotes. The assay is classed as cell-based, Leishmania mexicana. The settings on record: 100 μM, 8 h; for dCMP peak intensity: n = 3, SEM, untreated: not detected (<500); for dUrd peak intensity: untreated: 304 ± 155; for dADP peak intensity: untreated: 1458; for dAdo peak intensity: untreated: 2585 ± 811; for dCDP peak intensity / dCTP peak intensity: untreated: not detected. On the procedure: as §4, §5

Assay [5] concerns L. major promastigotes WT. Briefly: Alamar blue drug sensitivity assay, L. major WT. It is filed as cell-based, Leishmania major. Conditions: for EC50: Leishmania major, WT promastigotes, 72 h + 48 h with dye, n ≥ 4, read-out: EC50. On the procedure: as §3
Where [6] appears, read: inhibition of 0.25 μM [3H]-thymidine uptake (total LmajNT1.1 + LmajNT1.2), 5 min.

Like-named read-outs stand apart in the source and are kept apart here.

For orientation: Ki means a dissociation constant, usually derived from enzyme kinetics or from competition with a known ligand. On to `O=c1ccn([C@H]2C[C@H](O)[C@@H](CO)O2)c(=O)[nH]1` [2′-deoxyuridine], for which the Ki was found to be 9.3 ± 2.6 µM on LmexUU1 (inhibition of [3H]-uracil uptake, 4 min); 112 ± 17 µM on LmajNT1 [1] (setting [6]); 24.9 ± 8.6 µM on LmajNT1 [2]; 24.9 ± 8.6 µM on LmajUUT1. For the same compound, the “maximal inhibition of [3H]-uracil transport” value in the assay with LmexUU1 (n = 3) is listed as “approximately 85%”.

The term EC50 denotes the concentration giving half of the maximal effect. Consider `O=c1[nH]c(=O)n([C@H]2C[C@H](O)[C@@H](CO)O2)cc1F` [5F-2′dUrd, 5-Fluoro-2′-deoxyuridine], for which, in the assay on Lmex5FURes, the EC50 was 1.5 ± 0.2 µM and the “RF (Resistance Factor = IC50 (resistant clone)/IC50 (WT))” value (shortened to “RF”) is listed as 1.07. In the assay with Lmex5F2′dURes, the EC50 is over 5000 µM and the “RF” value is given as over 3500. Besides, the Ki on LmexNT1 is 6.99 ± 0.11 µM. At LmajNT1 [1], this compound returned an inhibitory constant (Ki) of 29.7 ± 2.1 µM. In [3], the concentration for a half-maximal effect (EC50) is about 1.5 µM. In addition, in the assay on Lmaj5FURes, the EC50 stood at 6.1 ± 0.5 µM and the “RF” value was determined as 3.6. Also, in the assay on Lmaj5F2′dURes, the EC50 was 381 ± 83 µM and the “RF” value is given as 224. In the assay with L. major promastigotes, the dCMP peak intensity result was “not detected”, the dUrd peak intensity is listed as 7615 ± 1236^∗ arbitrary units, the dCTP peak intensity amounted to 7036 ± 1684 arbitrary units and the dAdo peak intensity amounted to 14181 ± 3275 arbitrary units. Further, in the assay on L. major promastigotes, the dAMP peak intensity came to 14740 ± 2815 arbitrary units, the dADP peak intensity is on record as 6493 ± 3261 arbitrary units and the dCDP peak intensity is recorded as 6617 ± 188^∗∗∗ arbitrary units. Moreover, the dTTP intensity result in [4] (detection limit 500 units (Fig. 13F)) was “Not detectable”. In assay [4], the dCMP peak intensity came out at 6006 ± 3089 arbitrary units, the dUrd peak intensity was 5414 ± 717^∗ arbitrary units, the dADP peak intensity is 8367 ± 1844^∗ arbitrary units and the dAdo peak intensity stood at 5412 ± 1699 arbitrary units. Further, in assay [4], the dCDP peak intensity is given as 4451 ± 1188^∗ arbitrary units and the dCTP peak intensity came to 1569 ± 244 arbitrary units. In addition, in [5] (72 h), the EC50 is about 1.5 µM.

Take `O=c1[nH]c(=O)n([C@@H]2O[C@H](CO)[C@@H](O)[C@H]2O)cc1F` [5F-Urd, 5-Fluorouridine]: in the assay with Lmex5FURes, the EC50 was over 5000 µM and the “RF” value is recorded as 1. Besides, in the assay on Lmex5F2′dURes, the concentration giving a half-maximal response (EC50) was over 5000 µM and the “RF” value is recorded as 1. The Ki on LmajNT1 [1] (setting [6]) was determined as 23.4 ± 1.3 µM. In addition, in assay [3], the EC50 was over 5000 µM and the “activity against L. mexicana promastigotes” value is “insensitive”. Besides, the “activity against L. mexicana promastigotes” value in assay [3] (listed as 5-fluorouridine) is listed as “no activity”. In the assay on Lmaj5FURes, the EC50 stood at 110 ± 17 µM and the “RF” value amounted to 6.1. In addition, in the assay with Lmaj5F2′dURes, the EC50 came to 1230 ± 340 µM and the “RF” value was determined as 68. Further, in the assay with L. major promastigotes, the dCMP peak intensity is on record as 6744 ± 3500 arbitrary units, the dUrd peak intensity is 8145 ± 1684^∗ arbitrary units, the dCTP peak intensity is listed as 5477 ± 1350^∗ arbitrary units and the dAdo peak intensity is 11818 ± 839^∗∗ arbitrary units. Moreover, in the assay on L. major promastigotes, the dAMP peak intensity is given as 18001 ± 2307^∗ arbitrary units, the dADP peak intensity is given as 6482 ± 3260 arbitrary units and the dCDP peak intensity is 6904 ± 384^∗∗ arbitrary units. Besides, in assay [4], the dCMP peak intensity is given as 12757 ± 1038^∗∗ arbitrary units, the dUrd peak intensity is reported as 6439 ± 456^∗ arbitrary units, the dADP peak intensity is 9404 ± 1389^∗ arbitrary units and the dAdo peak intensity came to 8045 ± 4537 arbitrary units. Besides, in assay [4], the dCDP peak intensity was 10404 ± 1470^∗ arbitrary units and the dCTP peak intensity is reported as 2338 ± 428^∗ arbitrary units. For the same compound, in assay [4] (untreated: 10660 ± 2897), the dAMP peak intensity was 21978 ± 1784^∗∗ arbitrary units. Moreover, in assay [5], the “concentrations that killed promastigotes” value was “below 20 μM” and the EC50 was 18 ± 1.6 µM.
